According to US20070260068A1, “Method for the Preparation of Crystal Forms of Torsemide in a Pure State” (priority 2004, published 2007):

Experiments:
[1] = solubility of amorphous torsemide compared with crystalline forms; assay type: physicochemical; conditions: isolated amorphous torsemide vs crystalline forms incl. those of U.S. 5,914,336, Re. 34,672 and WO 00/20395
[2] = stability of the crystal form in an ethanol slurry; assay type: physicochemical
Method: (§1) In another embodiment of the present invention, torsemide modification I may be made from torsemide modification II by reslurry in ethanol. By the process of the present invention, torsemide modification II is stirred at room temperature in ethanol for a time sufficient to induce the transformation of torsemide modification II to torsemide modification I. Preferably the mixture is stirred for 2 hours. Torsemide modification I is isolated upon filtering the mixture followed by drying under high vacuum at a temperature of about 40° C. to about 60° C. for a sufficient time to complete drying. Drying is complete upon reaching constant weight. It has been observed that torsemide modification I is stable in an ethanol slurry for at least 65 hours.
as §1, with “dimethyl formamide (DMF).” for “ethanol.”, “methods” for “process”, “DMF” for “ethanol”, “I.” for “I. Preferably the mixture is stirred for 2 hours.”, “It has been observed that torsemide modification I is stable in an ethanol slurry for at least 65 hours.” left out

Row | time stable in an ethanol slurry [2] | SMILES | solubility relative to crystalline forms of torsemide [1]
1 |  | Cc1cccc(Nc2ccncc2S(=O)(=O)NC(=O)NC(C)C)c1 [amorphous torsemide, 1-Isopropyl-3-[(4-m-toluidino-3-pyridyl)sulfonyl] urea] | more soluble than crystalline forms of torsemide
2 | at least 65 hours | Cc1cccc(Nc2ccncc2S(=O)(=O)NC(=O)NC(C)C)c1 [torsemide modification I, 1-Isopropyl-3-[(4-m-toluidino-3-pyridyl)sulfonyl] urea] | 
